This is an account of results in publication PMC5270753, “Novel thermostable antibiotic resistance enzymes from the Atlantis II Deep Red Sea brine pool” (Microbial Biotechnology, 2016).

The structures appear in SMILES notation.

For experiment [1], the system named is T1, ATII-APH(3′).
T1 construct: full-length ORF (804 nt query), codon-optimised synthetic gene, N-terminal 10x-His tag (pET-16b), E. coli BL21(DE3), Talon-purified
Nature of the experiment: pyruvate kinase/lactate dehydrogenase coupled assay, NADH oxidation at […] nm. It is filed as biochemical. Conditions: phosphorylation of aminoglycoside; Michaelis-Menten fit.

The test system of experiment [2] is T2, ATII-ABL.
T2 construct: gene bla
Nature of the experiment: chromogenic nitrocefin hydrolysis at […] nm. Format: biochemical, uncultured bacterium. Conditions: 100 nM enzyme; Michaelis-Menten fit.

In general, Km refers to the concentration of substrate that gives half-maximal velocity. With `NCC[C@H](O)C(=O)N[C@@H]1C[C@H](N)[C@@H](O[C@H]2O[C@H](CN)[C@@H](O)[C@H](O)[C@H]2O)[C@H](O)[C@H]1O[C@H]1O[C@H](CO)[C@@H](O)[C@H](N)[C@H]1O` [Amikacin], in experiment [1], the Km turned out to be 5500 ± 1650 µM.

As for `NC[C@H]1O[C@H](O[C@H]2[C@H](O)[C@@H](O[C@H]3O[C@H](CO)[C@@H](O)[C@H](N)[C@H]3O)[C@H](N)C[C@@H]2N)[C@H](O)[C@@H](O)[C@@H]1O` [Kanamycin], the Km in experiment [1] stood at 4.7 ± 0.96 µM.

`O=C(Cc1cccs1)N[C@@H]1C(=O)N2C(C(=O)O)=C(/C=C/c3ccc([N+](=O)[O-])cc3[N+](=O)[O-])CS[C@H]12` [Nitrocefin]: in experiment [2], the Michaelis-Menten constant (Km) was 5.07 ± 1.65 µM.
